PubChem BioAssay AID1918944 (Molecular Pharmacology Branch, DTP, NCI, 2023)
Where “and” joins values, the source holds several entries; their conditions need not be identical. Equal entries are not always repeated. Each block holds one compound with its values, some of them ahead of it.

Test system: 786-0 complex spheroid viability
Assay: Anticancer human tumor 786-0 cell line growth inhibition;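 also: spheroids exposed to agents for seven days before readout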
Conditions: for viability, T/C: stronger effect = lower value
Procedure, shortened: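 Drug combinations with the LSD1 inhibitor iadademstat tested on tumor cells co-cultured as spheroids with endothelial cells and mesenchymal stem cells. Concentrations descended in half-log increments from clinical Cmax or 10 microM.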

[1] = curve of first compound, second compound 0.1 µM
[2] = curve of first compound, second compound 0.316 µM
[3] = curve of first compound, second compound 1 µM
[4] = curve of first compound, second compound 3.16 µM
[5] = curve of first compound, second compound 10 µM
[6] = second compound 0.1 µM, first compound 0.00949 µM
[7] = second compound 0.1 µM, first compound 0.03 µM
[8] = second compound 0.1 µM, first compound 0.0949 µM
[9] = second compound 0.1 µM, first compound 0.3 µM
[10] = second compound 0.1 µM, first compound 0.949 µM
[11] = second compound 0.1 µM, first compound 3 µM
[12] = second compound 0.316 µM, first compound 0.00949 µM
[13] = second compound 0.316 µM, first compound 0.03 µM
[14] = second compound 0.316 µM, first compound 0.0949 µM
[15] = second compound 0.316 µM, first compound 0.3 µM
[16] = second compound 0.316 µM, first compound 0.949 µM
[17] = second compound 0.316 µM, first compound 3 µM
[18] = second compound 1 µM, first compound 0.00949 µM
[19] = second compound 1 µM, first compound 0.03 µM
[20] = second compound 1 µM, first compound 0.0949 µM
[21] = second compound 1 µM, first compound 0.3 µM
[22] = second compound 1 µM, first compound 0.949 µM
[23] = second compound 1 µM, first compound 3 µM
[24] = second compound 3.16 µM, first compound 0.00949 µM
[25] = second compound 3.16 µM, first compound 0.03 µM
[26] = second compound 3.16 µM, first compound 0.0949 µM
[27] = second compound 3.16 µM, first compound 0.3 µM
[28] = second compound 3.16 µM, first compound 0.949 µM
[29] = second compound 3.16 µM, first compound 3 µM
[30] = second compound 10 µM, first compound 0.00949 µM
[31] = second compound 10 µM, first compound 0.03 µM
[32] = second compound 10 µM, first compound 0.0949 µM
[33] = second compound 10 µM, first compound 0.3 µM
[34] = second compound 10 µM, first compound 0.949 µM
[35] = second compound 10 µM, first compound 3 µM

Compound: COc1cc(C2c3cc4c(cc3C(OC3OC5COC(C)OC5C(O)C3O)C3COC(=O)C23)OCO4)cc(OC)c1O (centres undefined) + NC1CCC(NC2CC2c2ccccc2)CC1
- IC50 [1]: 203 nM
- IC50 [2]: 216 nM
- IC50 [3]: 199 nM
- IC50 [4]: 149 nM
- IC50 [5]: 115 nM
- viability, T/C [6]: 115%
- viability, T/C [7]: 105%
- viability, T/C [8]: 61.1%
- viability, T/C [9]: 44.3%
- viability, T/C [10]: 22%
- viability, T/C [11]: 9.16%
- viability, T/C [12]: 122%
- viability, T/C [13]: 119%
- viability, T/C [14]: 65.7%
- viability, T/C [15]: 45.8%
- viability, T/C [16]: 19.4%
- viability, T/C [17]: 8.96%
- viability, T/C [18]: 118%
- viability, T/C [19]: 110%
- viability, T/C [20]: 66.4%
- viability, T/C [21]: 40.7%
- viability, T/C [22]: 18.8%
- viability, T/C [23]: 8.18%
- viability, T/C [24]: 107%
- viability, T/C [25]: 104%
- viability, T/C [26]: 56.2%
- viability, T/C [27]: 34.4%
- viability, T/C [28]: 17.1%
- viability, T/C [29]: 7.91%
- viability, T/C [30]: 81.6%
- viability, T/C [31]: 79.6%
- viability, T/C [32]: 48.1%
- viability, T/C [33]: 33.2%
- viability, T/C [34]: 16.4%
- viability, T/C [35]: 4.68%

- IC50 (curve of compound): 915 nM and 1440 nM
Compound: O=C(C=Cc1cccc(S(=O)(=O)Nc2ccccc2)c1)NO
- viability, T/C (compound 0.00949 µM): 96.4% and 90.1%
- viability, T/C (compound 0.03 µM): 94.9% and 96.3%
- viability, T/C (compound 0.0949 µM): 98.5% and 102%
- viability, T/C (compound 0.3 µM): 93.5% and 98.6%
- viability, T/C (compound 0.949 µM): 48.6% and 73.1%
- viability, T/C (compound 3 µM): 6.1% and 9.6%

Compound: Nc1ccccc1NC(=O)c1ccc(CNC(=O)OCc2cccnc2)cc1 + NC1CCC(NC2CC2c2ccccc2)CC1
- IC50 [1]: 1670 nM
- IC50 [2]: 1550 nM
- IC50 [3]: 1540 nM
- IC50 [4]: 1280 nM
- IC50 [5]: 756 nM
- viability, T/C [6]: 115%
- viability, T/C [7]: 121%
- viability, T/C [8]: 113%
- viability, T/C [9]: 110%
- viability, T/C [10]: 80.9%
- viability, T/C [11]: 17.7%
- viability, T/C [12]: 123%
- viability, T/C [13]: 121%
- viability, T/C [14]: 119%
- viability, T/C [15]: 109%
- viability, T/C [16]: 74.2%
- viability, T/C [17]: 17.2%
- viability, T/C [18]: 116%
- viability, T/C [19]: 116%
- viability, T/C [20]: 112%
- viability, T/C [21]: 103%
- viability, T/C [22]: 74%
- viability, T/C [23]: 16.7%
- viability, T/C [24]: 107%
- viability, T/C [25]: 105%
- viability, T/C [26]: 103%
- viability, T/C [27]: 93.6%
- viability, T/C [28]: 62%
- viability, T/C [29]: 15.1%
- viability, T/C [30]: 85.5%
- viability, T/C [31]: 82.7%
- viability, T/C [32]: 86.1%
- viability, T/C [33]: 78.1%
- viability, T/C [34]: 43%
- viability, T/C [35]: 9.91%

- IC50 (curve of compound): > 100 nM
Compound: Cn1ncnc1C1c2n[nH]c(=O)c3cc(F)cc(c23)NC1c1ccc(F)cc1 (centres undefined)
- viability, T/C (compound 0.000316 µM): 102% and 101%
- viability, T/C (compound 0.001 µM): 108%
- viability, T/C (compound 0.00316 µM): 98.2% and 97.5%
- viability, T/C (compound 0.01 µM): 98.3% and 97.5%
- viability, T/C (compound 0.0316 µM): 100% and 92.3%
- viability, T/C (compound 0.1 µM): 97.7% and 89.8%

Compound: CC[C@@]1(O)C(=O)OCc2c1cc1n(c2=O)Cc2cc3c(CN(C)C)c(O)ccc3nc2-1 + NC1CCC(NC2CC2c2ccccc2)CC1
- IC50 [1]: 5.11 nM
- IC50 [2]: 5.13 nM
- IC50 [3]: 5.2 nM
- IC50 [4]: 4.39 nM
- IC50 [5]: 3.01 nM
- viability, T/C (second compound 0.1 µM, first compound 0.000316 µM): 114%
- viability, T/C (second compound 0.1 µM, first compound 0.001 µM): 113%
- viability, T/C (second compound 0.1 µM, first compound 0.00316 µM): 77.3%
- viability, T/C (second compound 0.1 µM, first compound 0.01 µM): 11.8%
- viability, T/C (second compound 0.1 µM, first compound 0.0316 µM): 5.31%
- viability, T/C (second compound 0.1 µM, first compound 0.1 µM): 3.53%
- viability, T/C (second compound 0.316 µM, first compound 0.000316 µM): 111%
- viability, T/C (second compound 0.316 µM, first compound 0.001 µM): 105%
- viability, T/C (second compound 0.316 µM, first compound 0.00316 µM): 78.3%
- viability, T/C (second compound 0.316 µM, first compound 0.01 µM): 10.8%
- viability, T/C (second compound 0.316 µM, first compound 0.0316 µM): 5.38%
- viability, T/C (second compound 0.316 µM, first compound 0.1 µM): 3.62%
- viability, T/C (second compound 1 µM, first compound 0.000316 µM): 115%
- viability, T/C (second compound 1 µM, first compound 0.001 µM): 105%
- viability, T/C (second compound 1 µM, first compound 0.00316 µM): 80%
- viability, T/C (second compound 1 µM, first compound 0.01 µM): 10.3%
- viability, T/C (second compound 1 µM, first compound 0.0316 µM): 5.66%
- viability, T/C (second compound 1 µM, first compound 0.1 µM): 3.63%
- viability, T/C (second compound 3.16 µM, first compound 0.000316 µM): 101%
- viability, T/C (second compound 3.16 µM, first compound 0.001 µM): 95.2%
- viability, T/C (second compound 3.16 µM, first compound 0.00316 µM): 65.2%
- viability, T/C (second compound 3.16 µM, first compound 0.01 µM): 12.4%
- viability, T/C (second compound 3.16 µM, first compound 0.0316 µM): 6.41%
- viability, T/C (second compound 3.16 µM, first compound 0.1 µM): 2.85%
- viability, T/C (second compound 10 µM, first compound 0.000316 µM): 84%
- viability, T/C (second compound 10 µM, first compound 0.001 µM): 71.7%
- viability, T/C (second compound 10 µM, first compound 0.00316 µM): 50.3%
- viability, T/C (second compound 10 µM, first compound 0.01 µM): 6.62%
- viability, T/C (second compound 10 µM, first compound 0.0316 µM): 5.01%
- viability, T/C (second compound 10 µM, first compound 0.1 µM): 3.36%

Compound: Nc1ccn(C2OC(CO)C(O)C2(F)F)c(=O)n1 (centres undefined) + NC1CCC(NC2CC2c2ccccc2)CC1
- IC50 [1]: < 0.949 nM
- IC50 [2]: < 0.949 nM
- IC50 [3]: < 0.949 nM
- IC50 [4]: < 0.949 nM
- IC50 [5]: < 0.949 nM
- viability, T/C (second compound 0.1 µM, first compound 0.000949 µM): 4.09%
- viability, T/C (second compound 0.1 µM, first compound 0.003 µM): 2.17%
- viability, T/C [6]: 2.51%
- viability, T/C [7]: 5.79%
- viability, T/C [8]: 3.38%
- viability, T/C [9]: 3.63%
- viability, T/C (second compound 0.316 µM, first compound 0.000949 µM): 4.14%
- viability, T/C (second compound 0.316 µM, first compound 0.003 µM): 2.73%
- viability, T/C [12]: 2.97%
- viability, T/C [13]: 3.95%
- viability, T/C [14]: 3.04%
- viability, T/C [15]: 3.93%
- viability, T/C (second compound 1 µM, first compound 0.000949 µM): 4.18%
- viability, T/C (second compound 1 µM, first compound 0.003 µM): 4.49%
- viability, T/C [18]: 3.51%
- viability, T/C [19]: 3.28%
- viability, T/C [20]: 5.66%
- viability, T/C [21]: 4.13%
- viability, T/C (second compound 3.16 µM, first compound 0.000949 µM): 5.7%
- viability, T/C (second compound 3.16 µM, first compound 0.003 µM): 3.25%
- viability, T/C [24]: 3.12%
- viability, T/C [25]: 3.88%
- viability, T/C [26]: 3.97%
- viability, T/C [27]: 4.18%
- viability, T/C (second compound 10 µM, first compound 0.000949 µM): 4.1%
- viability, T/C (second compound 10 µM, first compound 0.003 µM): 2.62%
- viability, T/C [30]: 3%
- viability, T/C [31]: 3.34%
- viability, T/C [32]: 2.68%
- viability, T/C [33]: 3.7%
